# Results: patent publication US20230151069A1, “Cyclic Peptides” (LIFEARC, priority 2020, published 2023)
# Assays:
# 5XFAD mice = test: Active immunisation, in vivo glucose metabolism by 18F-FDG-PET/MRI in 5XFAD mice; parameters: species or system mouse; settings: immunized 5XFAD mice, FIG. 30
# Description: 18F-FDG-PET/MRI was performed on 5xFAD mice as well as age matched C57Bl/6J wild type mice. Mice were fasted overnight and blood glucose levels were measured before tracer injection. 11.46 to 20.53 MBq (mean 16.81 MBq) 18F-FDG was injected intravenously into a tail vein with a maximum volume of 200 μl followed by an uptake period of 45 minutes. Mice were awake during the uptake process. PET scans were performed for 20 minutes using a small animal 1 Tesla nanoScan PET/MRI (Mediso, Hungary). Mice were anesthetized with isoflurane supplemented with oxygen during the scans and kept on a heated bed (37° C.). Respiratory rate was measured throughout the imaging process. […]
# All images were analyzed using PMOD v3.9 (PMOD Technologies, Switzerland) as described before (Bouter et al). […] PET VOI statistics (kBq/cc) were generated for all brain areas and standardized uptake values (SUVs) were calculated [SUV=tissue activity concentration average (kBq/cc)×body weight (g)/injected dose (kBq)] for semi-quantitative analysis. SUVs of 18F-FDG-PET scans were corrected for measured blood glucose levels [SUVGIc=SUV x blood glucose level (mg/dl)]. […]
# In vivo glucose metabolism on Alzheimer mice (5XFAD) as well as age matched C57Bl/6J wild type mice was analysed by 18F-FDG-PET/MRI imaging as described above.
# Tg4-42 mice = test: Spatial reference memory by Morris water maze in Tg4-42 mice; format: in vivo, mouse; settings: aged Tg4-42 mice, FIG. 31A
# Description: Tg4-42 mice were immunized at 6 weeks of age for 12 weeks with antigen [Thioacetal bridged Abeta peptide 1-14—KLH conjugate; DAC*[…]*HH[Cys]-amide (*S—CH—S bridged)] emulsified in complete Freund's adjuvant (CFA), followed by booster doses of protein emulsified in incomplete Freund's adjuvant (IFA). Booster injections of antigen emulsified in IFA was administered at day 14, day 28, day 42, thereafter monthly (3 times after month 4, 5 and 6), after immunization with antigen/CFA emulsion. Mice were acclimated at our facility for at least 7 days before immunization. Mice were injected with antigen emulsified in CFA or IFA subcutaneously at two sites on the back, injecting 0.05 to 0.1 mL at each site (total of 0.1 to 0.2 mL per mouse). […]
# Spatial reference memory in mice was evaluated using the Morris water maze (R. Morris, Developments of a water-maze procedure for studying spatial learning in the rat. J. Neurosci. Methods 11, 47-60 (1984)) as described previously (Y. Bouter et al., N-truncated amyloid beta (Abeta) 4-42 forms stable aggregates and induces acute and long-lasting behavioral deficits. Acta Neuropathol 126, 189-205 (2013)).
# The treatment effect of active immunization was assessed in 6.5 month old Tg4-42 mice on hippocampus-dependent learning and memory by the Morris water maze test (FIG. 31A) and by counting the total number of CA1 neurons in the hippocampus (FIG. 31B). […]
# [1] = tested on: full-length amyloid-beta 1-42; test: Reactivity of antibodies induced by the cyclic peptide with full-length amyloid-beta; format: in vivo; settings: antibodies induced by immunisation
# Description: • 1. Coat 384-well plate with 30 μL/well of 100 ng/ml PSL amyloid 1-42 peptide (Human-Peptide Specialty Laboratories-CEM1904161) diluted in carb/bicarb buffer • 2. Incubate at 37° C. for 1 hour • 3. Wash the plate (NUNC 384 program) • 4. […] Incubate at 4° C. overnight • 6. Wash the plate (NUNC 384 program) • 7. […] Transfer 30 μL/well onto the assay plate • 10. Incubate at 37° C. for 1 hour • 11. Wash the plate (NUNC 384 program) • 12. […] Incubate at 37° C. for 1 hour • 14. Wash the plate (NUNC 384 program) • 15. […] Incubate at RT for 10 min in the dark • 17. […] Coat 384-well plate with 30 μL/well of 100 ng/ml PSL amyloid pE3-42 peptide (Human-Peptide Specialty Laboratories-CEM062210 Pyr) diluted in carb/bicarb buffer • 2. Incubate at 37° C. for 1 hour • 3. Wash the plate (NUNC 384 program) • 4. […] Incubate at 4° C. overnight • 6. Wash the plate (NUNC 384 program) • 7. […] Transfer 30 μL/well onto the assay plate • 10. Incubate at 37° C. for 1 hour • 11. Wash the plate (NUNC 384 program) • 12. […] Incubate at 37° C. for 1 hour • 14. Wash the plate (NUNC 384 program) • 15. […] Incubate at RT for 10 min in the dark • 17.
substance,measurement,setting,value
"DAC*FRHDSGYEC*HH[Cys]-amide (*S—CH—S bridged, cyclised via positions 3 and 12)",brain glucose metabolism (18F-FDG uptake),5XFAD mice,significant rescue
same,"learning and memory deficits, Morris water maze probe trial",Tg4-42 mice; listed as 3-12 linked A61-14 cyclic peptide,substantial rescue of learning and memory deficits
same,"learning and memory deficits, Morris water maze probe trial",Tg4-42 mice; listed as cylised Aβ peptide,rescued memory deficits
same,reactivity of induced antibodies with full-length amyloid-beta 1-42,[1],do not react
